From patent publication US9255295B2, “Method for evaluating the sensitizing potential of a test compound” (IMMUNOSEARCH, priority 2010, dated 2016)
Where two headings read alike, the source gives them in different places.

Legend:
[1] = tested on: ARE gene family (AKR1B10, AKR1C1, AKR1C2, CYP1B1, FTH1P, FTL, G6PD, GCLM, NQO2, SLC7A11, TXNRD1, UGT1A1, UGT1A9, YWHAZ, CD36, CYP1A1, GCLC, HMOX1, NQO1, PSME2 …); settings: for AHR expression / AKR1B10 expression / AKR1C1 expression / AKR1C2 expression / CYP1A1 expression / CYP1B1 expression / FTH1P expression / FTL expression / GCLC expression / GCLM expression / HMOX1 expression / NQO1 expression / NQO2 expression / SLC7A11 expression / TXNRD1 expression / UGT1A1 expression / UGT1A9 expression: compared to the control
[2] = tested on: EPISKIN model; test: Sensitizing power: sensitizing potential retested at successive dilutions in the EPISKIN model
Description: “Sensitizing power” means the ability of a given compound to induce a sensitization reaction according to the concentration of said compound. Sensitizing power is dependent on the quantity of substance necessary to induce sensitization. Thus, the lower the sensitizing quantity necessary to induce a sensitizing response, the stronger the sensitizer is, and vice versa, the higher the sensitizing quantity necessary to induce a sensitizing response, the weaker the sensitizer is.
Thus, steps 1) and 2) will be done for each of the dilutions.

Question: With `CC=Cc1ccc(O)c(OC)c1` [Isoeugenol] as the molecule, how does the “AKR1C1 NUMBER OF GENES grade” value ([1]; 10%) read?
Answer: 0 (if this expression is lower, the grade is 0)

Question: And the “AKR1C2 NUMBER OF GENES grade” value ([1]; 10%)?
Answer: 0 (if this expression is lower, the grade is 0)

Question: What about the “ARE >1.3 (number of genes)” value ([1]; 10%) of the same molecule?
Answer: 5

Question: And the “CD36 expression compared to control” value ([1]; 10%)?
Answer: 0.6

Question: And the “CD36 grade (NUMBER OF GENES)” value ([1]; 10%)?
Answer: 0 (if this expression is lower, the grade is 0)

Question: And the “CYP1A1 NUMBER OF GENES grade” value ([1]; 10%)?
Answer: 1 (If the expression is greater than 1.3 compared to the control, a grade of 11s given)

Question: What about the “CYP1B1 NUMBER OF GENES grade” value ([1]; 10%) of the same molecule?
Answer: 1 (If the expression is greater than 1.3 compared to the control, a grade of 11s given)

Question: What about the “FTH1P NUMBER OF GENES grade” value ([1]; 10%) of the same molecule?
Answer: 0 (if this expression is lower, the grade is 0)

Question: What about the “FTL NUMBER OF GENES grade” value ([1]; 10%) of the same molecule?
Answer: 0 (if this expression is lower, the grade is 0)

Question: What about the “GCLC NUMBER OF GENES grade” value ([1]; 10%) of the same molecule?
Answer: 0 (if this expression is lower, the grade is 0)

Question: What about the “GCLM NUMBER OF GENES grade” value ([1]; 10%) of the same molecule?
Answer: 1 (If the expression is greater than 1.3 compared to the control, a grade of 11s given)

Question: And the “HMOX1 NUMBER OF GENES grade” value ([1]; 10%)?
Answer: 0 (if this expression is lower, the grade is 0)

Question: And the “NQO1 NUMBER OF GENES grade” value ([1]; 10%)?
Answer: 0 (if this expression is lower, the grade is 0)

Question: And the “NQO2 NUMBER OF GENES grade” value ([1]; 10%)?
Answer: 0 (if this expression is lower, the grade is 0)

Question: What about the “S100A8 expression compared to control” value ([1]; 10%) of the same molecule?
Answer: 1.3

Question: And the “S100A8 grade (NUMBER OF GENES)” value ([1]; 10%)?
Answer: 1 (If the expression is greater than 1.3 compared to the control, a grade of 11s given)

Question: And the “SLC7A11 NUMBER OF GENES grade” value ([1]; 10%)?
Answer: 0 (if this expression is lower, the grade is 0)

Question: What about the “TOTAL ARE (number of genes)” value ([1]; 10%) of the same molecule?
Answer: 5

Question: And the “TXNRD1 NUMBER OF GENES grade” value ([1]; 10%)?
Answer: 1 (If the expression is greater than 1.3 compared to the control, a grade of 11s given)

Question: What about the “UGT1A1 NUMBER OF GENES grade” value ([1]; 10%) of the same molecule?
Answer: 0 (if this expression is lower, the grade is 0)

Question: What about the “UGT1A9 NUMBER OF GENES grade” value ([1]; 10%) of the same molecule?
Answer: 1 (If the expression is greater than 1.3 compared to the control, a grade of 11s given)

Question: What about the AHR expression ([1]; 10%) of the same molecule?
Answer: 0.9

Question: What about the AKR1B10 expression ([1]; 10%) of the same molecule?
Answer: 0.5

Question: What about the AKR1C1 expression ([1]; 10%) of the same molecule?
Answer: 1.1

Question: And the AKR1C2 expression ([1]; 10%)?
Answer: 0.7

Question: What about the CYP1A1 expression ([1]; 10%) of the same molecule?
Answer: 510.5

Question: What about the CYP1B1 expression ([1]; 10%) of the same molecule?
Answer: 39.8

Question: And the FTH1P expression ([1]; 10%)?
Answer: 0.9

Question: And the FTL expression ([1]; 10%)?
Answer: 0.9

Question: And the GCLC expression ([1]; 10%)?
Answer: 0.8

Question: What about the GCLM expression ([1]; 10%) of the same molecule?
Answer: 1.5

Question: And the HMOX1 expression ([1]; 10%)?
Answer: 1.2

Question: What about the NQO1 expression ([1]; 10%) of the same molecule?
Answer: 1.0

Question: And the NQO2 expression ([1]; 10%)?
Answer: 0.9

Question: What about the SLC7A11 expression ([1]; 10%) of the same molecule?
Answer: 1.1

Question: And the TXNRD1 expression ([1]; 10%)?
Answer: 1.5

Question: And the UGT1A1 expression ([1]; 10%)?
Answer: 1.2

Question: What about the UGT1A9 expression ([1]; 10%) of the same molecule?
Answer: 1.6

Question: What about the “AHR NUMBER OF GENES grade” value ([1]; 50%) of the same molecule?
Answer: 0 (if this expression is lower, the grade is 0)

Question: And the “AKR1B10 NUMBER OF GENES grade” value ([1]; 50%)?
Answer: 0 (if this expression is lower, the grade is 0)

Question: What about the “AKR1C1 NUMBER OF GENES grade” value ([1]; 50%) of the same molecule?
Answer: 1 (If the expression is greater than 1.3 compared to the control, a grade of 11s given)

Question: What about the “AKR1C2 NUMBER OF GENES grade” value ([1]; 50%) of the same molecule?
Answer: 1 (If the expression is greater than 1.3 compared to the control, a grade of 11s given)

Question: And the “ARE >1.3 (number of genes)” value ([1]; 50%)?
Answer: 11

Question: What about the “CD36 expression compared to control” value ([1]; 50%) of the same molecule?
Answer: 0.6

Question: What about the “CD36 grade (NUMBER OF GENES)” value ([1]; 50%) of the same molecule?
Answer: 0 (if this expression is lower, the grade is 0)

Question: And the “CYP1A1 NUMBER OF GENES grade” value ([1]; 50%)?
Answer: 1 (If the expression is greater than 1.3 compared to the control, a grade of 11s given)

Question: And the “CYP1B1 NUMBER OF GENES grade” value ([1]; 50%)?
Answer: 1 (If the expression is greater than 1.3 compared to the control, a grade of 11s given)

Question: And the “FTH1P NUMBER OF GENES grade” value ([1]; 50%)?
Answer: 0 (if this expression is lower, the grade is 0)

Question: What about the “FTL NUMBER OF GENES grade” value ([1]; 50%) of the same molecule?
Answer: 1 (If the expression is greater than 1.3 compared to the control, a grade of 11s given)

Question: What about the “GCLC NUMBER OF GENES grade” value ([1]; 50%) of the same molecule?
Answer: 1 (If the expression is greater than 1.3 compared to the control, a grade of 11s given)

Question: What about the “GCLM NUMBER OF GENES grade” value ([1]; 50%) of the same molecule?
Answer: 1 (If the expression is greater than 1.3 compared to the control, a grade of 11s given)

Question: And the “HMOX1 NUMBER OF GENES grade” value ([1]; 50%)?
Answer: 1 (If the expression is greater than 1.3 compared to the control, a grade of 11s given)

Question: What about the “NQO1 NUMBER OF GENES grade” value ([1]; 50%) of the same molecule?
Answer: 1 (If the expression is greater than 1.3 compared to the control, a grade of 11s given)

Question: What about the “NQO2 NUMBER OF GENES grade” value ([1]; 50%) of the same molecule?
Answer: 0 (if this expression is lower, the grade is 0)

Question: And the “S100A8 expression compared to control” value ([1]; 50%)?
Answer: 1.5

Question: What about the “S100A8 grade (NUMBER OF GENES)” value ([1]; 50%) of the same molecule?
Answer: 1 (If the expression is greater than 1.3 compared to the control, a grade of 11s given)

Question: And the “SLC7A11 NUMBER OF GENES grade” value ([1]; 50%)?
Answer: 1 (If the expression is greater than 1.3 compared to the control, a grade of 11s given)

Question: What about the “TOTAL ARE (number of genes)” value ([1]; 50%) of the same molecule?
Answer: 11

Question: And the “TXNRD1 NUMBER OF GENES grade” value ([1]; 50%)?
Answer: 1 (If the expression is greater than 1.3 compared to the control, a grade of 11s given)

Question: What about the “UGT1A1 NUMBER OF GENES grade” value ([1]; 50%) of the same molecule?
Answer: 0 (if this expression is lower, the grade is 0)

Question: And the “UGT1A9 NUMBER OF GENES grade” value ([1]; 50%)?
Answer: 0 (if this expression is lower, the grade is 0)

Question: What about the AHR expression ([1]; 50%) of the same molecule?
Answer: 1.0

Question: And the AKR1B10 expression ([1]; 50%)?
Answer: 1.0

Question: And the AKR1C1 expression ([1]; 50%)?
Answer: 2.2

Question: What about the AKR1C2 expression ([1]; 50%) of the same molecule?
Answer: 1.3

Question: And the CYP1A1 expression ([1]; 50%)?
Answer: 87.1

Question: And the CYP1B1 expression ([1]; 50%)?
Answer: 39.1

Question: What about the FTH1P expression ([1]; 50%) of the same molecule?
Answer: 1.0

Question: And the FTL expression ([1]; 50%)?
Answer: 1.5

Question: And the GCLC expression ([1]; 50%)?
Answer: 1.3

Question: What about the GCLM expression ([1]; 50%) of the same molecule?
Answer: 2.0

Question: And the HMOX1 expression ([1]; 50%)?
Answer: 1.4

Question: What about the NQO1 expression ([1]; 50%) of the same molecule?
Answer: 1.8

Question: And the NQO2 expression ([1]; 50%)?
Answer: 1.1

Question: What about the SLC7A11 expression ([1]; 50%) of the same molecule?
Answer: 2.2

Question: And the TXNRD1 expression ([1]; 50%)?
Answer: 2.6

Question: And the UGT1A1 expression ([1]; 50%)?
Answer: 1.2

Question: What about the UGT1A9 expression ([1]; 50%) of the same molecule?
Answer: 1.2

Question: And the “sensitizing potential (conclusion)” value ([2]; 0.1%)?
Answer: Sensitizing

Question: And the “sensitizing potential (conclusion)” value ([2]; 1%)?
Answer: Sensitizing

Question: And the “sensitizing potential (conclusion)” value ([2]; 10%)?
Answer: Sensitizing

Question: And the “sensitizing potential (conclusion)” value ([2]; 50%)?
Answer: Sensitizing

Question: And the “sensitizing power (class)” value ([2]; from successive dilutions)?
Answer: MODERATE
